{"source": "paper PMC6572064", "about": "“Discovery of 2-(1-(3-(4-Chloroxyphenyl)-3-oxo- propyl)pyrrolidine-3-yl)-1H-benzo[d]imidazole-4-carboxamide: A Potent Poly(ADP-ribose) Polymerase (PARP) Inhibitor for Treatment of Cancer” (Molecules, 2019)", "key": {"[1]": {"tested_on": "MDA-MB-436 (a BRCA-1-mutated breast cancer cell line)", "assay": "Cell proliferation assay, three-day, CellTiter-Glo, MDA-MB-436", "format": "cell-based", "conditions": "for inhibition at 0.00508 µM / inhibition at 0.0152 µM / inhibition at 0.0457 µM / inhibition at 0.41 µM / inhibition at 1.23 µM / inhibition at 3.7 µM / inhibition at 11.11 µM / inhibition at 33.33 µM / inhibition at 100 µM / IC50: Homo sapiens; for inhibition at 0.00508 µM: MDA-MB-436, MDA-MB-436, Conc. 0.00508 uM; for inhibition at 0.0152 µM: MDA-MB-436, MDA-MB-436, Conc. 0.0152 uM; for inhibition at 0.0457 µM: MDA-MB-436, MDA-MB-436, Conc. 0.0457 uM; for inhibition at 0.41 µM: MDA-MB-436, MDA-MB-436, Conc. 0.41 uM; for inhibition at 1.23 µM: MDA-MB-436, MDA-MB-436, Conc. 1.23 uM; for inhibition at 3.7 µM: MDA-MB-436, MDA-MB-436, Conc. 3.70 uM; for inhibition at 11.11 µM: MDA-MB-436, MDA-MB-436, Conc. 11.11 uM; for inhibition at 33.33 µM: MDA-MB-436, MDA-MB-436, Conc. 33.33 uM; for inhibition at 100 µM: MDA-MB-436, MDA-MB-436, Conc. 100.00 uM", "how_it_was_run": "(§1)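 Cells seeded overnight in 384-well plates, then exposed to compounds (DMSO stock diluted in medium) for 72 h at 37 °C, 5% CO2. Viability read as CellTiter-Glo luminescence after 60 min at room temperature.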"}, "[2]": {"tested_on": "CAPAN-1 (a BRCA-2-mutated pancreatic cancer cell line)", "assay": "Cell proliferation assay, three-day, CellTiter-Glo, CAPAN-1", "format": "cell-based", "conditions": "for IC50 / inhibition at 0.00508 µM / inhibition at 0.0152 µM / inhibition at 0.0457 µM / inhibition at […] / inhibition at 0.41 µM / inhibition at 1.23 µM / inhibition at 3.7 µM / inhibition at 11.11 µM / inhibition at 33.33 µM / inhibition at 100 µM: Homo sapiens; for inhibition at 0.00508 µM: CAPAN-1, 0.00508 uM; for inhibition at 0.0152 µM: CAPAN-1, 0.0152 uM; for inhibition at 0.0457 µM: CAPAN-1, 0.0457 uM; for inhibition at […]: CAPAN-1, 0.14 uM; for inhibition at 0.41 µM: CAPAN-1, 0.41 uM; for inhibition at 1.23 µM: CAPAN-1, 1.23 uM; for inhibition at 3.7 µM: CAPAN-1, 3.70 uM; for inhibition at 11.11 µM: CAPAN-1, 11.11 uM; for inhibition at 33.33 µM: CAPAN-1, 33.33 uM; for inhibition at 100 µM: CAPAN-1, 100.00 uM", "how_it_was_run": "as §1"}, "PARP-1": {"molecular_target": "T1, PARP-1 (Homo sapiens, UniProt P09874)", "T1 construct": "purchased BPS Bioscience 80569", "T1 sequence (P09874 whole entry)": "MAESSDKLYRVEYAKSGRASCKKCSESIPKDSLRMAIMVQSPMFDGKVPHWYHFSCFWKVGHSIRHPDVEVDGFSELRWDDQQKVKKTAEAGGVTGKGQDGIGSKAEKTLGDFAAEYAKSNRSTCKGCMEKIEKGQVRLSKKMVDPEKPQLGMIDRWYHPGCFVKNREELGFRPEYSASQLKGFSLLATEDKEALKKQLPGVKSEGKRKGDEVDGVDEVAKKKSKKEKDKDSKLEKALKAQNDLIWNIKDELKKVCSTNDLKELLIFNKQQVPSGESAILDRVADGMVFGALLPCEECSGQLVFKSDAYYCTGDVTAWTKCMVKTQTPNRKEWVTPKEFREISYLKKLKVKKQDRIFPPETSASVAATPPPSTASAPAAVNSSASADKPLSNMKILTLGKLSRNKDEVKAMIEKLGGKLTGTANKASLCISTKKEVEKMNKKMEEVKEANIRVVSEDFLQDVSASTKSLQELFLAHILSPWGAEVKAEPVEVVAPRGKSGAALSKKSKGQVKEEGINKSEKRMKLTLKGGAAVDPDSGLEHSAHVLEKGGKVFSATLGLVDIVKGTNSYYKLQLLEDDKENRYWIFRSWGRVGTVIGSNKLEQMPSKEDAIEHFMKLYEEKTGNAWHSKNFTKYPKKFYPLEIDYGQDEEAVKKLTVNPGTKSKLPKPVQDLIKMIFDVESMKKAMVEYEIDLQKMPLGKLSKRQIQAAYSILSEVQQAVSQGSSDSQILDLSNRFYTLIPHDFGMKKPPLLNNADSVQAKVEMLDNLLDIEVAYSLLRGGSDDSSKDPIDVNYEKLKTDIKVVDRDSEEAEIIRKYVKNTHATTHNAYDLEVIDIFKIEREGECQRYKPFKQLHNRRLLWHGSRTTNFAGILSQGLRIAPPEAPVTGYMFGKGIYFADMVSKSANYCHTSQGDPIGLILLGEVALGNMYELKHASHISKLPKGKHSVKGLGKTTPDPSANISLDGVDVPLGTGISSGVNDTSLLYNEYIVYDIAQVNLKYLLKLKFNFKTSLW", "assay": "PARP-1 inhibition assay (PARP-1 Chemiluminescent Assay Kit, BPS Bioscience)", "format": "biochemical", "conditions": "for inhibition at 0.01 µM: 10 nM compound", "description": "(§2) The PARP-1 and PARP-2 inhibition assays were performed in outsourcing, by a CRO company, Shanghai Medicilon Inc. (Shanghai, China). […] Briefly, PARP-1 or PARP-2 biotinylated substrate was incubated with compounds or solvent control at varying concentrations and an assay buffer containing the PARP-1 or PARP-2 enzyme."}, "PARP-2": {"molecular_target": "T2, PARP-2 (Homo sapiens, UniProt Q9UGN5)", "T2 construct": "purchased BPS Bioscience 80552", "T2 sequence (Q9UGN5 whole entry)": "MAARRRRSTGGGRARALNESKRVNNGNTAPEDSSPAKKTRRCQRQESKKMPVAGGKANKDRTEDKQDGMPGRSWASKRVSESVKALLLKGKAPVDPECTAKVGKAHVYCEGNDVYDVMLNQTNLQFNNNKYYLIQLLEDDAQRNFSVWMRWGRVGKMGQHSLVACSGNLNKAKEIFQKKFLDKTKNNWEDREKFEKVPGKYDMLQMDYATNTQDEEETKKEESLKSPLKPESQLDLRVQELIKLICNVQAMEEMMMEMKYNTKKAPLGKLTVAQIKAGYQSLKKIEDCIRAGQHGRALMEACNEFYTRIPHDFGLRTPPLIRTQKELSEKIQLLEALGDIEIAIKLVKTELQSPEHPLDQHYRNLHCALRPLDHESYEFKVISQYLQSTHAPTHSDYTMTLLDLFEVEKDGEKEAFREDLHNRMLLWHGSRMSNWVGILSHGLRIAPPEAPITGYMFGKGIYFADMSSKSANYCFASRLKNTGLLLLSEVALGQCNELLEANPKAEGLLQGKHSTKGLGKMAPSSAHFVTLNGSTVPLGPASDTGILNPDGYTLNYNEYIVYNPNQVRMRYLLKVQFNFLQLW", "assay": "PARP-2 inhibition assay (PARP-2 Chemiluminescent Assay Kit, BPS Bioscience)", "format": "biochemical", "conditions": "for inhibition at 0.01 µM: 10 nM compound", "description": "as §2"}}, "note": "Read-outs that look alike come from different tables or passages of the source."}
{"smiles": "NC(=O)c1cccc2[nH]c(C3CCN(CCCC(=O)c4ccccc4)C3)nc12", "note": "(centres unmarked) [Compound 5cc, 2-(1-(4-Oxo-4-phenylbutyl)pyrrolidin-3-yl)-1H-benzo[d]imidazole-4-carboxamide]", "values": [{"measurement": "inhibition at 0.00508 µM", "setting": "[1]; replicate 1, read-out: Inh % 1", "result": -5, "unit": "%"}, {"measurement": "inhibition at 0.00508 µM", "setting": "[1]; replicate 2, read-out: Inh % 2", "result": -0.000277, "unit": "%"}, {"measurement": "inhibition at 0.0152 µM", "setting": "[1]; replicate 1, read-out: Inh % 1", "result": -5.6, "unit": "%"}, {"measurement": "inhibition at 0.0152 µM", "setting": "[1]; replicate 2, read-out: Inh % 2", "result": -6.4, "unit": "%"}, {"measurement": "inhibition at 0.0457 µM", "setting": "[1]; replicate 1, read-out: Inh % 1", "result": -12.8, "unit": "%"}, {"measurement": "inhibition at 0.0457 µM", "setting": "[1]; replicate 2, read-out: Inh % 2", "result": -9.3, "unit": "%"}, {"measurement": "inhibition at 0.41 µM", "setting": "[1]; replicate 1, read-out: Inh % 1", "result": -7.7, "unit": "%"}, {"measurement": "inhibition at 0.41 µM", "setting": "[1]; replicate 2, read-out: Inh % 2", "result": -9, "unit": "%"}, {"measurement": "inhibition at 1.23 µM", "setting": "[1]; replicate 1, read-out: Inh % 1", "result": -9.6, "unit": "%"}, {"measurement": "inhibition at 1.23 µM", "setting": "[1]; replicate 2, read-out: Inh % 2", "result": -10.8, "unit": "%"}, {"measurement": "inhibition at 3.7 µM", "setting": "[1]; replicate 1, read-out: Inh % 1", "result": -9.3, "unit": "%"}, {"measurement": "inhibition at 3.7 µM", "setting": "[1]; replicate 2, read-out: Inh % 2", "result": -9.7, "unit": "%"}, {"measurement": "inhibition at 11.11 µM", "setting": "[1]; replicate 1, read-out: Inh % 1", "result": -6.6, "unit": "%"}, {"measurement": "inhibition at 11.11 µM", "setting": "[1]; replicate 2, read-out: Inh % 2", "result": -8.1, "unit": "%"}, {"measurement": "inhibition at 33.33 µM", "setting": "[1]; replicate 1, read-out: Inh % 1", "result": 62, "unit": "%"}, {"measurement": "inhibition at 33.33 µM", "setting": "[1]; replicate 2, read-out: Inh % 2", "result": 38.7, "unit": "%"}, {"measurement": "inhibition at 100 µM", "setting": "[1]; replicate 1, read-out: Inh % 1", "result": 99.6, "unit": "%"}, {"measurement": "inhibition at 100 µM", "setting": "[1]; replicate 2, read-out: Inh % 2", "result": 99.3, "unit": "%"}, {"measurement": "IC50", "setting": "[1]; MDA-MB-436, 72 h, CellTiter-Glo, read-out: MDA-MB-436 IC50", "result": 31.9, "unit": "µM"}, {"measurement": "IC50", "setting": "[1]; MDA-MB-436, 72 h, supplement Summary sheet, read-out: IC50", "result": 31.9, "unit": "µM"}, {"measurement": "IC50", "setting": "[1]; MDA-MB-436, curve fit list, no unit in the cell, concentration in uM, read-out: IC50", "result": 31.9, "unit": "µM"}, {"measurement": "LogIC50", "setting": "[1]; MDA-MB-436, curve fit on Log (uM) concentrations", "result": 1.504}, {"measurement": "Bottom", "setting": "[1]; MDA-MB-436, curve fit parameter (Inh %)", "result": -8.27}, {"measurement": "Top", "setting": "[1]; MDA-MB-436, curve fit parameter (Inh %), '= 100.0' is a constrained value", "result": 100}, {"measurement": "LogIC50", "setting": "[2]; CAPAN-1, curve-fit output, Log (uM)", "result": 1.317}, {"measurement": "IC50", "setting": "[2]; CAPAN-1, 72 h, CellTiter-Glo, read-out: CAPAN-1 IC50", "result": 20.7, "unit": "µM"}, {"measurement": "inhibition at 0.00508 µM", "setting": "[2]; replicate 1, read-out: Inh % 1", "result": -7.2, "unit": "%"}, {"measurement": "inhibition at 0.00508 µM", "setting": "[2]; replicate 2, read-out: Inh % 2", "result": 1.2, "unit": "%"}, {"measurement": "inhibition at 0.0152 µM", "setting": "[2]; replicate 1, read-out: Inh % 1", "result": 1.3, "unit": "%"}, {"measurement": "inhibition at 0.0152 µM", "setting": "[2]; replicate 2, read-out: Inh % 2", "result": 4.1, "unit": "%"}, {"measurement": "inhibition at 0.0457 µM", "setting": "[2]; replicate 1, read-out: Inh % 1", "result": 1.4, "unit": "%"}, {"measurement": "inhibition at 0.0457 µM", "setting": "[2]; replicate 2, read-out: Inh % 2", "result": 9, "unit": "%"}, {"measurement": "inhibition at […]", "setting": "[2]; replicate 1, read-out: Inh % 1", "result": 8.1, "unit": "%"}, {"measurement": "inhibition at […]", "setting": "[2]; replicate 2, read-out: Inh % 2", "result": 7.4, "unit": "%"}, {"measurement": "inhibition at 0.41 µM", "setting": "[2]; replicate 1, read-out: Inh % 1", "result": 22.4, "unit": "%"}, {"measurement": "inhibition at 0.41 µM", "setting": "[2]; replicate 2, read-out: Inh % 2", "result": 6.9, "unit": "%"}, {"measurement": "inhibition at 1.23 µM", "setting": "[2]; replicate 1, read-out: Inh % 1", "result": 18, "unit": "%"}, {"measurement": "inhibition at 1.23 µM", "setting": "[2]; replicate 2, read-out: Inh % 2", "result": 5.8, "unit": "%"}, {"measurement": "inhibition at 3.7 µM", "setting": "[2]; replicate 1, read-out: Inh % 1", "result": 5.7, "unit": "%"}, {"measurement": "inhibition at 3.7 µM", "setting": "[2]; replicate 2, read-out: Inh % 2", "result": 1.6, "unit": "%"}, {"measurement": "inhibition at 11.11 µM", "setting": "[2]; replicate 1, read-out: Inh % 1", "result": 14.5, "unit": "%"}, {"measurement": "inhibition at 11.11 µM", "setting": "[2]; replicate 2, read-out: Inh % 2", "result": 8.2, "unit": "%"}, {"measurement": "inhibition at 33.33 µM", "setting": "[2]; replicate 1, read-out: Inh % 1", "result": 93.8, "unit": "%"}, {"measurement": "inhibition at 33.33 µM", "setting": "[2]; replicate 2, read-out: Inh % 2", "result": 86.5, "unit": "%"}, {"measurement": "inhibition at 100 µM", "setting": "[2]; replicate 1, read-out: Inh % 1", "result": 100, "unit": "%"}, {"measurement": "inhibition at 100 µM", "setting": "[2]; replicate 2, read-out: Inh % 2", "result": 99.5, "unit": "%"}, {"measurement": "IC50", "setting": "[2]; CAPAN-1, 72 h, supplement Summary sheet, read-out: IC50", "result": 20.7, "unit": "µM"}, {"measurement": "IC50", "setting": "[2]; CAPAN-1, curve-fit output, concentrations in uM, read-out: IC50", "result": 20.7, "unit": "µM"}, {"measurement": "inhibition at 0.01 µM", "setting": "PARP-1; supplement sheet, read-out: 10 nM inhibition% PAPR-1", "result": 42.8, "unit": "%"}, {"measurement": "inhibition at 0.01 µM", "setting": "PARP-1; read-out: PARP-1 Inhibition % (10 nM)", "result": 42.8, "unit": "%"}, {"measurement": "IC50", "setting": "PARP-1; read-out: PARP-1 IC50", "result": 0.0122, "unit": "µM"}, {"measurement": "IC50", "setting": "PARP-1; supplement sheet, read-out: IC50 PAPR-1", "result": 0.0122, "unit": "µM"}, {"measurement": "inhibition at 0.01 µM", "setting": "PARP-2; supplement sheet, read-out: 10 nM inhibition% PAPR-2", "result": 62.3, "unit": "%"}, {"measurement": "inhibition at 0.01 µM", "setting": "PARP-2; read-out: PARP-2 Inhibition % (10 nM)", "result": 62.3, "unit": "%"}, {"measurement": "IC50", "setting": "PARP-2; read-out: PARP-2 IC50", "result": 0.0058, "unit": "µM"}, {"measurement": "IC50", "setting": "PARP-2; supplement sheet, read-out: IC50 PAPR-2", "result": 0.00576, "unit": "µM"}]}
